Patent US20230348564A1, “ANTI-CANCER PROTEINS” (UNICHEM LABORATORIES LTD, priority 2020, published 2023)
Where two headings read alike, the source gives them in different places.

Assays:
[1] = system: HT-29 (Colorectal cancer); assay: Xenograft study; assay type: in vivo, mice; details: HT-29 xenograft, IP
Text: (§1) The Xenograft models used were HT-29, KB, PA-1, MCF-7, PANC-1, T24 and MDA-MB-231. The basic study design for the Xenograft study was as follows: • 1. Cell maintenance and cell suspension preparation • 2. Aseptic injection of tumor cell suspension in the donor animal • 3. Randomization of animals in respective groups • 4. IP dosing of test items in predetermined doses • 5. IP administration of standard • 6. After completion of dosing period. • 7. The Tumor volume recording weekly twice while body weight and clinical signs daily.

[2] = system: Notch-1; assay: biomarker levels in IOMM-Lee by ELISA; assay type: cell-based, Human; details: 0.1 μM
Text: (§2) Effect of SEQ ID No 2 on the expression of following 7 biomarkers were estimated in Human Meningioma cell line (IOMM-Lee) using multiplex analysis: TNF-alpha, VEGF, VEGFR2, HGF, HGFR/c-MET, PDGF-BB, and Contactin-1. Levels of another marker, Notch-1 were also estimated by ELISA in the same cell line. These 8 biomarkers play very crucial role in the pathogenesis and progression of Brain Tumor. […] Supernatants were collected and the levels of these 8 markers were investigated.

[3] = system: Astrocytoma (U87MG); assay: cytotoxicity in Brain Tumor Cell lines by MTT assay; details: 0.05 μM-50 μM, 72 h
[4] = system: Glioma (C6); assay: as above; assay type: cell-based, Rat; details: 0.05 μM-50 μM, 72 h
Protocol: (§3) The SEQ ID NO. […] Untreated cells were used as control. […] Cells were incubated for 3 h at 37° C.

[5] = system: Meningioma (IOMM-Lee); assay: as above; details: 0.05 μM-50 μM, 72 h
[6] = system: Glioblastoma (LN-18); assay: as above; assay type: cell-based, Human; details: 0.05 μM-50 μM, 72 h
Protocol: as §3

[7] = system: Neuroblastoma (SH-SY5Y); assay: as above; assay type: cell-based, Human; details: 0.05 μM-50 μM, 72 h
Protocol: as §3

[8] = system: VEGF; assay: biomarker levels in IOMM-Lee by multiplex analysis; assay type: cell-based, Human; details: 0.1 μM
Text: as §2

[9] = system: VEGFR2; assay: biomarker levels in IOMM-Lee by multiplex analysis; assay type: cell-based, Human
Text: as §2

[10] = system: TNF-α; assay: biomarker levels in IOMM-Lee by multiplex analysis; assay type: cell-based, Human
Text: as §2

[11] = system: PDGF-BB; assay: biomarker levels in IOMM-Lee by multiplex analysis; assay type: cell-based, Human
Text: as §2

[12] = system: HGFR/c-MET; assay: biomarker levels in IOMM-Lee by multiplex analysis; assay type: cell-based, Human
Text: as §2

[13] = system: Contactin-1; assay: biomarker levels in IOMM-Lee by multiplex analysis; assay type: cell-based, Human
Text: as §2

[14] = system: HGF; assay: biomarker levels in IOMM-Lee by multiplex analysis; assay type: cell-based, Human
Text: as §2

[15] = system: PANC-1 (Pancreas/duct epithelioid carcinoma); assay: Xenograft study; assay type: in vivo, mice; details: PANC-1 xenograft, IP
Text: as §1

[16] = system: EA.hy926 (Human endothelial cells); assay: endothelial cell proliferation by MTT assay; assay type: cell-based; details: 72 h
Protocol: The cell line used for the study was EA.hy926 (Human endothelial cells) which was procured from National Centre for Cell Science, Pune (India). The cell line was maintained in DMEM+10% FBS (heat inactivated) at 37° C. with 5% CO2, and 95% humidity. […] Untreated cells with complete medium (10% FBS) served as complete medium control, cells with sera free medium served as SFM control and the cells treated with Paclitaxel served as positive control.
The percentage cytotoxicity corresponding to each treatment was calculated.

[17] = system: EA.hy926 (Human endothelial cells); assay: Cell migration by scratch assay in endothelial cells; assay type: cell-based; details: Homo sapiens, read-out: Inhibition of migration with respect to untreated; for inhibition at 0.0001 µM: 0.1 nM; for inhibition at 0.001 µM: 1 nM; for inhibition at 0.0025 µM: 2.5 nM; for inhibition at 0.005 µM: 5 nM; for inhibition at 0.01 µM: 10 nM
Protocol: EA.hy296 cells were counted using hemocytometer and plated in 6-well plates at the density of 0.5×10^6 cells/well. The cells were incubated overnight under growth conditions as described above so as to allow cell recovery and exponential growth. Following overnight incubation, a small linear scratch (representative wound) was created in the confluent monolayer (middle of the well) by gently scraping with sterile 200 μl micropipette tip. Photomicrographs of the scratch were taken at 0 h (Initial time point). Cells were rinsed with serum free DMEM and grouped for treatment in two different serum conditions:
• Baseline control: Cells+DMEM • Positive/Validation control: Baseline control+Positive Control. Test: Baseline control+Test Item
• Baseline control: Cells+DMEM+1% FBS • Positive/Validation control: Baseline control+Positive Control. • Test: Baseline control+Test item
Photomicrographs of the scratch were taken at 24 h-72 h time points. The photomicrographs obtained in the above step were analyzed for quantitative assessment of area of wound closure using ImageJ tool software. Percentage migration with respect to untreated cells at different time points was calculated.

[18] = system: neovascularization of Matrigel plug containing FGF-2 (bFGF); assay: Matrigel plug assay (in-vivo anti-angiogenesis); parameters: species or system C57BL/6 mice; details: G3, 55 mg/Kg, qdx15
Protocol: Healthy C57BL/6 mice were selected and grouped on the basis of body weight into […] (G1-G4, n=7). Each mouse of group G2-G4 was subcutaneously injected at right flank region with 500 μl of matrigel containing 500 ng of FGF-2 (bFGF). Whereas mice of G1 group were subcutaneously injected at right flank region with 500 μl of matrigel only. In this assay, angiogenesis-inducing compounds such as bFGF was introduced into cold liquid Matrigel which, after subcutaneous injection, solidified and permits penetration by host cells and the formation of new blood vessels (neovascularization).
Required amount of test items were taken and added to an appropriate volume of Tris Buffered Saline (TBS) to achieve the required concentrations. The dose volume given to animal was 10 mL/Kg.
Daily cage-side observations were carried out to detect any clinical signs or mortality and recorded throughout the experiment period.

## O=c1[nH]cc(F)c(=O)[nH]1 [5-Fluorourasil, reference compound]
[1]
  Maximum Tumor Growth Inhibition (%): 62.94%
  Tumor Volume (mm^3) (Mean ± SEM): 1362 ± 155 mm^3

## CO[C@H]1C[C@@H]2CC[C@@H](C)[C@@](O)(O2)C(=O)C(=O)N2CCCC[C@H]2C(=O)O[C@H]([C@H](C)C[C@@H]2CC[C@@H](OCCO)[C@H](OC)C2)CC(=O)[C@H](C)/C=C(\C)[C@@H](O)[C@@H](OC)C(=O)[C@H](C)C[C@H](C)/C=C/C=C/C=C/1C [Everolimus]
[2]
  Percentage inhibition on levels of Notch-1: 75.9%
[3]
  % of cytotoxicity: 43.6%-88.0%
[4]
  % of cytotoxicity: 50.3%-97.2%
[5]
  % of cytotoxicity: 44.7%-97.4%
[6]
  % of cytotoxicity: 3.5%-90.7%
[7]
  % of cytotoxicity: 29.7%-70.1%
[8]
  Percentage inhibition on levels of VEGF: 45.8%
[9]; 0.1 μM
  Percentage inhibition on levels of VEGFR2: 27.6%
[9]; 5 μM
  Percentage inhibition on levels of VEGFR2: 100%
[10]; 0.1 μM
  Percentage inhibition on levels of TNF-α: 42.3%
[10]; 5 μM
  Percentage inhibition on levels of TNF-α: 100%
[11]; 0.1 μM
  Percentage inhibition on levels of PDGF-BB: 1.5%
[11]; 5 μM
  Percentage inhibition on levels of PDGF-BB: 67.9%
[12]; 0.1 μM
  Percentage inhibition on levels of HGFR/c-MET: 21.2%
[12]; 5 μM
  Percentage inhibition on levels of HGFR/c-MET: 41%
[13]; 0.1 μM
  Percentage inhibition on levels of Contactin-1: 14.9%
[13]; 5 μM
  Percentage inhibition on levels of Contactin-1: 31.3%
[14]; 0.1 μM
  Percentage inhibition on levels of HGF: 59.2%
[14]; 5 μM
  Percentage inhibition on levels of HGF: 80.8%

## Nc1ccn([C@@H]2O[C@H](CO)[C@@H](O)C2(F)F)c(=O)n1 [Gemcitabine, reference compound]
[15]
  Maximum Tumor Growth Inhibition (%): 61.49%
  Tumor Volume (mm^3) (Mean ± SEM): 503.93 ± 151.27 mm^3

## CC(=O)O[C@H]1C(=O)[C@@]2(C)[C@H]([C@H](OC(=O)c3ccccc3)[C@]3(O)C[C@H](OC(=O)[C@H](O)[C@@H](NC(=O)c4ccccc4)c4ccccc4)C(C)=C1C3(C)C)[C@]1(OC(C)=O)CO[C@@H]1C[C@@H]2O [Paclitaxel, reference compound]
[16]; 1 nM
  Mean (MTT absorbance): 0.93
[16]; 10 nM
  Mean (MTT absorbance): 0.89
[16]; 100 nM
  Mean (MTT absorbance): 0.57
[16]; 1000 nM
  Mean (MTT absorbance): 0.45
[16]; Homo sapiens, EA.hy 926, 1 nM, read-out: % inhibition of FBS stimulated cell growth
  inhibition at 0.001 µM: 42%
[16]; Homo sapiens, EA.hy 926, 10 nM, read-out: % inhibition of FBS stimulated cell growth
  inhibition at 0.01 µM: 44.7%
[16]; Homo sapiens, EA.hy 926, 100 nM, read-out: % inhibition of FBS stimulated cell growth
  inhibition at 0.1 µM: 64.5%
[16]; Homo sapiens, EA.hy 926, 1000 nM, read-out: % inhibition of FBS stimulated cell growth
  inhibition at 1 µM: 71.7%
[17]; EA.hy 926, 24 h, 24 h, 1% FBS
  inhibition at 0.0001 µM: -1.1%
  inhibition at 0.001 µM: 7.8%
  inhibition at 0.0025 µM: 25.9%
  inhibition at 0.005 µM: 25%
  inhibition at 0.01 µM: 44.4%
[17]; EA.hy 926, 24 h, 24 h, SFM
  inhibition at 0.0001 µM: 26.5%
  inhibition at 0.001 µM: 28.5%
  inhibition at 0.0025 µM: 51.4%
  inhibition at 0.005 µM: 43.7%
  inhibition at 0.01 µM: 58.9%
[17]; EA.hy 926, 48 h, 48 h, 1% FBS
  inhibition at 0.0001 µM: -0.2%
  inhibition at 0.001 µM: 2.1%
  inhibition at 0.0025 µM: 18.3%
  inhibition at 0.005 µM: 10.6%
  inhibition at 0.01 µM: 37.2%
[17]; EA.hy 926, 48 h, 48 h, SFM
  inhibition at 0.0001 µM: 21.1%
  inhibition at 0.001 µM: 36.8%
  inhibition at 0.0025 µM: 51.6%
  inhibition at 0.005 µM: 45.2%
  inhibition at 0.01 µM: 60.2%
[17]; EA.hy 926, 72 h, 72 h, SFM
  inhibition at 0.0001 µM: 7.8%
  inhibition at 0.001 µM: 32.7%
  inhibition at 0.0025 µM: 42.8%
  inhibition at 0.005 µM: 47.3%
  inhibition at 0.01 µM: 56.3%

## CCN(CC)CCNC(=O)c1c(C)[nH]c(/C=C2\C(=O)Nc3ccc(F)cc32)c1C [Sunitinib, reference compound]
[18]; p.o.
  Hemoglobin Content in the Matrigel Plug Section, Mean: 21.92
  reduction in hemoglobin content in homogenate of Matrigel plug compared to positive control: 59.2%
[18]
  Histological Observation, Fat cell Infiltration, Mean: 0.71
  Histological Observation, Fibroblast Infiltration, Mean: 2.43
  Histological Observation, MN cell Infiltration, Mean: 1.57
  Histological Observation, Neovascularization, Mean: 1.14
